One series addresses T1, human Factor XIa (Homo sapiens, UniProt P03951).
T1 construct: Enzyme: Factor XIa; 0.25 μM in 50% glycerol (20 μg/mL)
Briefly: Factor XIa enzyme inhibition assay (IC50, purified enzyme). The following applies: purified enzyme 0.25 nM, substrate 50 μM; read-out: Potency hFXIa IC50. Format: biochemical. Here is the method:
(§1) • Assay buffer: 20 mM Hepes, pH 7.4; 150 mM NaCl; 0.02% Tween 20 • Compounds: 10 mM stocks in DMSO • Substrate: 20 mM Glp-Pro-Arg-AMC, 25 mg/2.3 mL H2O (store at +4° C.) [Factor XIa, thrombin, and trypsin] • 20 mM Pro-Phe-Arg-AMC (Bachem I-1295), 25 mg/2.2 mL H2O (store at +4° C.) [Factor Xa] • Enzyme: Factor XIa; 0.25 μM in 50% glycerol (20 μg/mL) • Trypsin; 0.2 μM in 50% glycerol (4.8 μg/mL) • Thrombin; 0.2 μM in 50% glycerol (7.34 μg/mL) • Factor Xa; 0.2 μM in 50% glycerol (9.2 μg/mL) • These stocks are aliquoted ([…]) and stored at −20° C. Methods: • 1. Dilute the substrate to 100 μM in assay buffer (30 μL/6 mL). The enzyme is diluted to 0.5 nM just prior to use (12 μL/6 mL for Factor XIa; 15 μL/6 mL for all of the rest.) • 2. Pipette 50 μL of substrate into each well of the 96 well (12×8) microtiter plate. (Column 1 is used as the 100% activity control and receives no compound, and Column 12 is the blank and receives no enzyme.) Add an additional 46 μL to column 2. • 3. Pipette 4 μL of each compound into the appropriate well in column 2 of the plate (unknowns assayed in triplicate, standard assayed in duplicate). The final compound concentration will be 1/50th of the stock. • 4. Serially two-fold dilute the compound by mixing the sample in column 2, removing 50 μL to the next well (column 3), mix and remove to column 4, etc. until column 11. After mixing column 11, remove 50 μL and discard. • 5. Pipette 50 μL of buffer into column 12. Initiate the reaction by adding 50 μL of enzyme solution to each well of columns 1-11 as rapidly as possible. • 6. Read the plate in a spectrophotometer (SpectraMax) at 30° C., wherein each well is measured every 60 s for 30 min. For Factor Xa assays, each well is measured every 1 min for a total of 60 min. • 7. For Factor XIa assays, the compounds are assayed, in duplicate, at 3 different starting concentrations, 20, 2, and 0.2 μM; 1:10, 1:100, and 1:1000 dil'n of 10 mM stock. All data sets are combined for graphing and data fitting. • 8. Data can be used both for estimation of IC50 and for estimation of Kon.
Potential inhibitors of Factor XIa were evaluated using the following assay.
S-2366, pyroGlu-Pro-Arg-7-methylaminocourin (AMC), available from CPC Scientific, Inc., is based on the substrate pyro-Glu-Pro-Arg-pNA, available from Diapharma Group, Inc. (Columbus, Ohio), where the p-nitroanaline group is replaced with 7-methylaminocoumarin (AMC).
The final concentration of the substrate in the assay was 50 μM, and the final concentration of the enzyme was 0.25 nM. Inhibitors were tested by serial dilution over an appropriate range to yield a dose response curve for determination of the inhibitors' IC50 value. The assay mixture was read every minute for 30 minutes in order to generate progress curves. The plates were read in a Spectramax m5 Multimode Plate Reader (Molecular Devices LLC, Sunnyvale, Calif.). Dose response curves were fit to Equation 1 below in which A is the maximum inhibition, B is the minimum inhibition, C is the IC50, and D is the Hill coefficient. [(A−B)/(1+(X/C)^D)]+B (Equation 1)

The target in a further series is T2, Factor Xa (Homo sapiens, UniProt P00742).
T2 construct: Factor Xa; 0.2 μM in 50% glycerol (9.2 μg/mL)
Description: Dose response assay for protease inhibitors: Factor Xa (FXIa fold selectivity). Format: biochemical. Conditions: fold selectivity for FXIa over Factor Xa. On the procedure:
as §1

A further series deals with T3, Thrombin (Homo sapiens, UniProt P00734).
T3 construct: Thrombin; 0.2 μM in 50% glycerol (7.34 μg/mL)
Briefly: Dose response assay for protease inhibitors: thrombin (FXIa fold selectivity). The series is classed as biochemical. Conditions: fold selectivity for FXIa over thrombin. On the procedure: as §1

A further series concerns Trypsin. Briefly: Dose response assay for protease inhibitors: trypsin (FXIa fold selectivity). Conditions: fold selectivity for FXIa over trypsin. Format: biochemical. On the procedure: as §1
Series [1] is described as follows: β-Lactam stability in rat plasma. The series is classed as in vitro ADME. Conditions: normal rat plasma, room temperature; read-out: Rat Plasma Stability (T1/2; min). On the procedure: Normal rat plasma, stored at −80° C.
• 1. Place 6 μL of each compound into 0.5 mL microcentrifuge tubes or 96-well U-bottom, polypropylene microtiter plate • 2. Place 40 μL of acetonitrile (AcN) into 0.5 mL microcentrifuge tubes labeled 1-9 • 3. Add 114 μL of plasma to each compound • 4. Sample 10 μL of compound/plasma into AcN at 2, 10, 20, 30, 60, 90, 120, 240, and 480 min of incubation at room temperature • 5. Mix each time point after adding sample and place on ice. • 6. Centrifuge time points (12,000 rpm, 3 min), remove 15 μL of the supernatant and mix with 15 μL 0.1% TFA in a V-bottom microtiter plate. • 7. Place microtiter plate in autosampler of HPLC and analyze on Restek Pinnacle C18 column (2.1×100 mm). • 8. Generate extracted ion chromatogram for parent compound and parent compound+18 (H2O). Integrate extracted ion chromatograms (EIC) and plot % total peak area for parent and adduct versus time. Fit to a model of single phase exponential decay [Y=A0*exp(−k*x)+C]. T½ is equal to ln(2)/k.

This note sets out measurements from patent US11198673B2, “Therapeutic compounds and compositions” (eXIthera Pharmaceuticals, Inc., priority 2014, dated 2021).

pIC50: −log10 of the molar value.

T2 sequence (P00742 235-488 limits assumed): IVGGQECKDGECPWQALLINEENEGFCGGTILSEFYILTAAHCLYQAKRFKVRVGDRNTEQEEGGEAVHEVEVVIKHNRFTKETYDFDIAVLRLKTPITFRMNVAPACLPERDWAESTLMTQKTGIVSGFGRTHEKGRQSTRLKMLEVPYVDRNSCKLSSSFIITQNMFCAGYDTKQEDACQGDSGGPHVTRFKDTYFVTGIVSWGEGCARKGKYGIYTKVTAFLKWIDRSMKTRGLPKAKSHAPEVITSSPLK
T2 sequence (P00742 41-179 partner limits assumed): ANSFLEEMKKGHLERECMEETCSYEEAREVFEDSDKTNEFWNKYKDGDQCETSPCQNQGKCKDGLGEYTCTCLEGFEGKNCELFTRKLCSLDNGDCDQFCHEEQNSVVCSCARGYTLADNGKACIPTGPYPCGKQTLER
T1 sequence (P03951 388-625 limits assumed): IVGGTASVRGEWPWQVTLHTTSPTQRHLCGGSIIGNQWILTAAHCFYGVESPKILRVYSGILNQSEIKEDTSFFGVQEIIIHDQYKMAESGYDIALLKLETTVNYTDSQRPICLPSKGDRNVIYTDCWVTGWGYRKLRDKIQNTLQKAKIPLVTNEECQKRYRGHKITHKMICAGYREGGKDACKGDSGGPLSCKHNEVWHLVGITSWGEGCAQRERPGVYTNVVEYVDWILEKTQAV
T1 sequence (P03951 19-387 partner limits assumed): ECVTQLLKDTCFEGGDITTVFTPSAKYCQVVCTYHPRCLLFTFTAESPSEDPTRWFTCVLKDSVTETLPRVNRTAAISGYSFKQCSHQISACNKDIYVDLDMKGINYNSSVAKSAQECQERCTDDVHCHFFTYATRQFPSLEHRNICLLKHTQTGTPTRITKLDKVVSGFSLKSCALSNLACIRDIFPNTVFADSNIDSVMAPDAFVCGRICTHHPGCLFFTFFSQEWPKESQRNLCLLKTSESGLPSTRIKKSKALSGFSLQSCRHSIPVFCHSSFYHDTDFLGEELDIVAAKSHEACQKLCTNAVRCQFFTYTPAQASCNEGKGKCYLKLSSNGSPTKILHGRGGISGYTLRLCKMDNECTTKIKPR

As for `CC(C)[C@@H](C)NC(=O)N1C(=O)[C@H](Cc2ccnc(N)c2)[C@H]1C(=O)O` [Example 32], on human Factor XIa, the negative logarithm of the IC50 (pIC50) is 7.00 to 8.00. Besides, the “FXIa Fold Selectivity FXa” value at Factor Xa was “G (“G” indicates 1-500)”. Further, at Thrombin, the “FXIa Fold Selectivity Thrombin” value is listed as “G (“G” indicates 1-500)”. The “FXIa Fold Selectivity Trypsin” value in the series on Trypsin is on record as “G (“G” indicates 1-500)”. Further, the half-life in series [1] was greater than 1.67 h.

Take `CCO[C@@H]1[C@@H](Cc2ccnc(N)c2)C(=O)N1C(=O)NC(c1ccccc1)c1ccccc1` [Example 33]: on human Factor XIa, the negative-log IC50 (pIC50) was less than 6.00. Besides, at Factor Xa, the “FXIa Fold Selectivity FXa” value is on record as “F (“F” indicates <1)”. The “FXIa Fold Selectivity Thrombin” value on Thrombin is given as “G (“G” indicates 1-500)”. Also, the “FXIa Fold Selectivity Trypsin” value in the series with Trypsin is “G (“G” indicates 1-500)”. For the same compound, the half-life in series [1] is greater than 1.67 h.

On to `C[C@@H](NC(=O)N1C(=O)[C@H](Cc2ccnc(N)c2)[C@H]1C#N)c1ccccc1` [Example 34], for which, on human Factor XIa, the pIC50 was greater than 8.00. The “FXIa Fold Selectivity FXa” value at Factor Xa was “I (“I” indicates >1000)”. Also, the “FXIa Fold Selectivity Thrombin” value on Thrombin was “I (“I” indicates >1000)”. For the same compound, the “FXIa Fold Selectivity Trypsin” value in the series with Trypsin is reported as “G (“G” indicates 1-500)”. Also, the half-life in series [1] is less than 1.67 h.

With `CS(=O)(=O)[C@@H]1[C@@H](Cc2ccnc(N)c2)C(=O)N1C(=O)NC(c1ccccc1)c1ccccc1` [Example 35], the pIC50 at human Factor XIa was 6.00 to 7.00. Also, at Factor Xa, the “FXIa Fold Selectivity FXa” value is “G (“G” indicates 1-500)”. In addition, the “FXIa Fold Selectivity Thrombin” value on Thrombin is reported as “G (“G” indicates 1-500)”. For the same compound, the “FXIa Fold Selectivity Trypsin” value with Trypsin was “G (“G” indicates 1-500)”. The half-life in series [1] was less than 1.67 h.

Regarding `C[C@@H](NC(=O)N1C(=O)[C@H](Cc2ccnc(N)c2)[C@H]1S(C)(=O)=O)c1ccccc1` [Example 39], the pIC50 on human Factor XIa was 6.00 to 7.00. In addition, on Factor Xa, the “FXIa Fold Selectivity FXa” value is on record as “G (“G” indicates 1-500)”. The “FXIa Fold Selectivity Thrombin” value at Thrombin was “G (“G” indicates 1-500)”. In addition, the “FXIa Fold Selectivity Trypsin” value with Trypsin is “G (“G” indicates 1-500)”. In addition, in series [1], the half-life was less than 1.67 h.

As to `C[C@@H](NC(=O)N1C(=O)[C@H](Cc2ccnc(N)c2)[C@H]1C(=O)O)c1cccnc1` [Example 40], the negative logarithm of the IC50 (pIC50) on human Factor XIa is 7.00 to 8.00. Also, the “FXIa Fold Selectivity FXa” value at Factor Xa is recorded as “I (“I” indicates >1000)”. Besides, the “FXIa Fold Selectivity Thrombin” value at Thrombin is “I (“I” indicates >1000)”. Besides, the “FXIa Fold Selectivity Trypsin” value with Trypsin is reported as “I (“I” indicates >1000)”. Also, the half-life in series [1] is greater than 1.67 h.

Turning to `CC(NC(=O)N1C(=O)[C@H](Cc2ccnc(N)c2)[C@H]1C(=O)O)c1cccc(F)c1` (some centres unmarked) [Example 42], the pIC50 on human Factor XIa was greater than 8.00. Besides, the “FXIa Fold Selectivity FXa” value at Factor Xa was “I (“I” indicates >1000)”. On Thrombin, the “FXIa Fold Selectivity Thrombin” value is “I (“I” indicates >1000)”. Moreover, the “FXIa Fold Selectivity Trypsin” value with Trypsin is listed as “H (“H” indicates 500-1000)”. For the same compound, the half-life in series [1] was greater than 1.67 h.

`Nc1cc(C[C@H]2C(=O)N(C(=O)NCc3cccc4ccccc34)[C@@H]2C(=O)O)ccn1` [Example 43]: the pIC50 on human Factor XIa was 7.00 to 8.00. For the same compound, at Factor Xa, the “FXIa Fold Selectivity FXa” value is “G (“G” indicates 1-500)”. The “FXIa Fold Selectivity Thrombin” value on Thrombin was “G (“G” indicates 1-500)”. For the same compound, the “FXIa Fold Selectivity Trypsin” value in the series on Trypsin is listed as “G (“G” indicates 1-500)”. In addition, the half-life in series [1] is greater than 1.67 h.

For `Nc1cc(C[C@H]2C(=O)N(C(=O)N[C@@H](c3ccccc3)C(F)(F)F)[C@@H]2C(=O)O)ccn1` [Example 44], the pIC50 on human Factor XIa is greater than 8.00. Also, the “FXIa Fold Selectivity FXa” value at Factor Xa is “I (“I” indicates >1000)”. The “FXIa Fold Selectivity Thrombin” value on Thrombin is “I (“I” indicates >1000)”. In addition, the “FXIa Fold Selectivity Trypsin” value in the series on Trypsin is recorded as “G (“G” indicates 1-500)”. The half-life in series [1] was greater than 1.67 h.

Consider `CC(NC(=O)N1C(=O)[C@H](Cc2ccnc(N)c2)[C@H]1C(=O)O)c1ccc(OC(F)(F)F)cc1` (some centres unmarked) [Example 47], for which the negative logarithm of the IC50 (pIC50) on human Factor XIa was greater than 8.00. In addition, the “FXIa Fold Selectivity FXa” value at Factor Xa is “I (“I” indicates >1000)”. Besides, the “FXIa Fold Selectivity Thrombin” value on Thrombin is listed as “I (“I” indicates >1000)”. Further, in the series with Trypsin, the “FXIa Fold Selectivity Trypsin” value is reported as “H (“H” indicates 500-1000)”. The half-life in series [1] was greater than 1.67 h.

For orientation: pIC50 means the IC50 on a negative log10 scale, so that one unit is a factor of ten.
